{"source": "patent US10524471B2", "about": "“Compositions and methods for increasing salt tolerance in plants” (King Abdullah University of Science and Technology, priority 2016, dated 2020)", "tested_on": "Arabidopsis seedlings", "test": "Arabidopsis salt stress tolerance assay (½ MS + 100 mM NaCl)", "type": "in vivo, Arabidopsis thaliana", "note": "“Also recorded” adds a separate entry of the source."}
{"smiles": "NC1(C(=O)O)CC1", "note": "[ACC, 1-aminocyclopropane-1-carboxylic acid]", "values": [{"measurement": "effect on salt stress tolerance compared with SA187", "setting": "100 nM ACC, ½ MS + 100 mM NaCl, 12 days after transfer", "value": "could largely mimic the beneficial activity of SA187; also recorded: partially mimics the effect of SA187"}]}
{"smiles": "O=[N+]([O-])[O-].[Ag+]", "note": "[AgNO3, silver nitrate]", "values": [{"measurement": "SA187-induced tolerance to salt stress in presence of inhibitor", "setting": "in vivo", "value": "did not exhibit any SA187-induced tolerance to salt stress"}]}
